Reference: patent US5922875A, “Aromatic acid diamides with antigastrin activity, a method for their preparation and their pharmaceutical use” (Rotta Research Laboratorium S.p.A., priority 1995, dated 1999)

How the values were obtained:
rats = test: Anxiolytic activity, elevated plus-maze in rats; type: in vivo, rat
Procedure: It has in fact recently been postulated that the central CCK-B receptor plays an important role in anxiety. This accords with studies also carried out in man which have shown that the central CCK-B mechanisms have an important function in the mediation of panic attacks [Bradwejn, J.et al; J.Psychopharmacology 6 (1992), 345]. In order to confirm this hypothesis, the anxiolytic activities of several of the most powerful CCK-B antagonists of the invention were evaluated by the method of the "elevated plus-maze" in rats, carried out in accordance with Pellow et al. [J. of Neurosc. Meth. 14(1985), 149-167]. A labyrinth was used in which the length of the cross arm was about 45 cm placed at a height from the ground of 70 cm. On this experimental model, a compound having anxiolytic activity produces a percentage increase in the stay time in the open arms and a percentage increase in the number of entries into the open arms.
The results obtained are given in Table 5 below where the activities obtained with different doses of the compound 4 administered intraperitoneally (IP) are given in comparison with a group of animals treated with a physiological saline in the same way.

[1] = biological target: T1, type-B cholecystokynin (CCK-B) or gastrin receptors (Oryctolagus cuniculus, UniProt P46627); test: Inhibition of the gastrin-induced increase of cytosolic calcium in rabbit gastric mucosa cells; type: cell-based
T1 construct: rabbit gastric mucosa cells were prepared by conventional techniques; endogenous in cells; host or cells: freshly isolated rabbit gastric mucosa cells (collagenase/pronase digestion)
T1 sequence (P46627 1-452): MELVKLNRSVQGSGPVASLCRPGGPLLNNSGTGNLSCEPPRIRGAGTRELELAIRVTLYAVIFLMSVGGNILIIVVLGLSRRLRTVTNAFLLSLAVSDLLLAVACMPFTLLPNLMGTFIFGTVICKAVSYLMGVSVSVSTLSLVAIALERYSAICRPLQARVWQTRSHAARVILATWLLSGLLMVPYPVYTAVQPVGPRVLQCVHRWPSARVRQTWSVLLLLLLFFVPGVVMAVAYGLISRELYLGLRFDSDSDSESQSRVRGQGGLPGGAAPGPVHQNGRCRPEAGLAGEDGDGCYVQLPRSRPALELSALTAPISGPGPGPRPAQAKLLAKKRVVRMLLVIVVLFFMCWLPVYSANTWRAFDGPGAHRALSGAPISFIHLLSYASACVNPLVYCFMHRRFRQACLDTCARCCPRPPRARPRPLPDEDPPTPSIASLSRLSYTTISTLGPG
Excerpt: The parietal cells of the gastric mucosa are responsible for the secretion of HCl. They present specific membrane receptors which may be activated by gastrin and which have been defined as type-B cholecystokynin (CCK-B) or gastrin receptors.
Since it has been observed that the activation of the CCK-B receptors by gastrin results in a raising of the levels of cytosolic calcium ions, a technique has been used for measuring the increase in intracellular calcium induced by gastrin in the presence and absence of the compounds which are the subject of the invention, as an index of the anti-gastrin activity of the compounds themselves.
Suspensions (0.8×10^6 /ml) of rabbit gastric mucosa cells were prepared by conventional techniques with the use of collagenase and pronase as digestive enzymes; the estimation of the [Ca^2+ ]i values, basal or achieved after stimulation of the cell system was carried out in accordance with Grynkiewicz et al [J.Biol.Chem 260 (1985), 3440]. In the control samples the cells were stimulated with […] while in the samples in which the effect of the compounds in question was evaluated, the cells were incubated therewith before stimulation with gastrin. The results are expressed as percentage increases in [Ca^2+ ]i with respect to the control value. The anti-gastrin activity of the compounds was expressed as the IC50 value, that is, the concentration (in μmoles/liter) at which the response to the stimulus induced by the gastrin was reduced by 50%. The results thus obtained for several compounds of the invention are given in Table 3 which also gives an index formed from the ratio between the peripheral anti-gastrin activity just described and the displacement activity derived from the study of binding to the cortical receptors of guinea pigs described above.

central CCK-B receptor = biological target: T2, central CCK-B receptor (Cavia porcellus, UniProt H0VZC5); test: Inhibition of binding of [3H][N-methyl-N-leucine]CCK-8 to guinea pig cortical membranes (anti-CCK-B in vitro)
T2 construct: The cerebral cortices of male albino guinea pigs were therefore used; from tissue; host or cells: cerebral cortex membranes of male albino guinea pigs
T2 sequence (H0VZC5 1-426): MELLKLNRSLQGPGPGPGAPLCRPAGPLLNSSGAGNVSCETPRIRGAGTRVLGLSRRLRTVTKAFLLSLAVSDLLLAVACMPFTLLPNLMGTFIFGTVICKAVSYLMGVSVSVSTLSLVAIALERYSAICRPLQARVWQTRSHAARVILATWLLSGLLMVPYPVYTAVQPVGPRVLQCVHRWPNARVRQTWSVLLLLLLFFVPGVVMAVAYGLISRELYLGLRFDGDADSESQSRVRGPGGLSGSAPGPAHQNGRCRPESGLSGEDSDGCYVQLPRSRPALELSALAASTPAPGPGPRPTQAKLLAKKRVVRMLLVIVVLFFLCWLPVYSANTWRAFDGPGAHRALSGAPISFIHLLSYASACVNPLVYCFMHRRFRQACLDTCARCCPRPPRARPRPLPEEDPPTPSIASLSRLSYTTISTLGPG
Procedure: The capacity of the compounds which are the subject of the invention to interact with the central CCK-B receptor was evaluated with the use of [3-H][N-methyl-N-leucine]CCK-8. […] The cerebral cortices of male albino guinea pigs were therefore used, the method given above being followed with slight modifications [Makovec et al.; Bioorganic & Med. Chem. Letters 3 (5)(1993), 861-866] so as to give a membrane content corresponding to about 300 mcg of protein/mL.

Cc1cc(C)c(NC(=O)CC(CC(=O)O)c2cccc3ccccc23)c(C(=O)N2CCC3(CCCC3)CC2)c1 (stereo not shown) [Compound 4]
% Effect VS controls (time) (rats; 0.03 mg/kg I.P., rat): 10.4% | % Effect Vs controls (entries) (rats; 0.03 mg/kg I.P., rat): 19.3% | Entries to open arm/total entries (%) (rats; 0.03 mg/kg I.P., rat): 36.4% | Time in open arm/total time (%) (rats; 0.03 mg/kg I.P., rat): 21.1% | % Effect VS controls (time) (rats; 0.3 mg/kg I.P., rat): 47.9% | % Effect Vs controls (entries) (rats; 0.3 mg/kg I.P., rat): 39.3% | Entries to open arm/total entries (%) (rats; 0.3 mg/kg I.P., rat): 42.5% | Time in open arm/total time (%) (rats; 0.3 mg/kg I.P., rat): 28.2% | percentage stay time in the open arms compared with controls (rats; 0.3 mg/kg I.P., significant vs saline controls): increases the percentage stay time in the open arms | % Effect VS controls (time) (rats; 3.0 mg/kg I.P., rat): 4.2% | % Effect Vs controls (entries) (rats; 3.0 mg/kg I.P., rat): 11.5% | Entries to open arm/total entries (%) (rats; 3.0 mg/kg I.P., rat): 34.0% | Time in open arm/total time (%) (rats; 3.0 mg/kg I.P., rat): 19.9% | percentage number of entries into the open arm compared with the controls (rats; dose range 0.03-3 mg/kg I.P.): increases the percentage number of entries into the open arm | anxiolytic effect (rats; plus maze, rat, I.P.): displays an anxiolytic effect | IC50 ([1]; cells stimulated with 5×10^-8 gastrin, [Ca2+]i): 4 nM | IC50 ([1]; gastrin-induced [Ca2+]i in rabbit gastric mucosa cells): 4 nM | IC50 (central CCK-B receptor; displacement of [3H][N-methyl-N-leucine]CCK-8, cortical membrane in guinea pigs, read-out: IC50): 24 nM | times less active than pentagastrin (central CCK-B receptor; ratio of binding IC50 values): 8 times
